Assay results reported in patent publication US20030148404A1, “Peptides and substances, methods and devices using same for diagnosing and treating neurodegenerative disorders” (Ramot University Authority For Applied Research & …, priority 2000, published 2003).
Non-standard residues stand in square brackets, D forms with d. No end group written: not given here. pS = N[C@@H](COP(=O)(O)O)C(=O)O

What was measured:
anti-NF—H antibodies [1] = test: Streptavidin-biotin ELISA: serum IgG binding to biotinylated NF-H peptide (protocol optimisation, pooled AD serum); set-up: species or system human; conditions: serum pooled from 10 AD patients; streptavidin plates blocked or not blocked; FIG. 1
Description: Solutions and Materials: Tris Buffered Saline (TBS): 50 mM Tris-HCl, pH 7.4 (Tris (Sigma, T-1378); HCl (Merck 1.00319.1000)) 200 mM NaCl (Merck, 1.06404.1000). TBST: 0.05% (w/v) Tween-20 (Sigma, P-7949) in TBS. Phosphate Buffered Saline (PBS): 0.1 M phosphate buffer, pH 7.2 (Sodium phosphate, monobasic (Sigma. S-8182) and Sodium phosphate, dibasic (Sigma, S-7907)). 200 mM NaCl (Merck, 1.06404.1000). PBST: 0.05% (w/v) Tween-20 (Sigma, P-7949) in PBS. Dilution/Blocking buffer: 0.5% Gelatin (Difco, 0143-17-9) in TBST. Streptavidin stock solution: 2 mg/ml Streptavidin (Sigma, S4762) in purified water. Aliquoted and kept at −20° C., this solution is stable indefinitely. Multiwell Plates: Nunc Maxisorp (Cat. No. 442404) 96 well C-shaped microplates. Secondary antibody: Goat anti-human IgG Horse radish peroxidase conjugate (Jackson, 109-035-088). Substrate solution: 1 mg/ml OPD (Sigma, P-8412)+0.005% H2O2 (Merck, 1.07210.0250) in […] Sodium Citrate buffer, pH 5 (Merck, 1.00 244.1000).
A Streptavidin stock solution (2 mg/ml Streptavidin prepared in purified water, aliquoted, and stored at −20° C.) was diluted 1:400 in ddH2O and a 100 μl aliquot was added to each well of a multiwell plate (96 well C-shaped microplates). […]
OD was measured at 450 nm and 620 nm every minute over a period of 10-15 minutes. […]

anti-NF—H antibodies [2] = test: ELISA comparison of AD and NC sera with peptides; separation algorithms and grouping of peptides into FACTs; format: binding, human; conditions: single peptide
Description: A Streptavidin stock solution (2 mg/ml Streptavidin prepared in purified water, aliquoted, and stored at −20° C.) was diluted 1:400 in ddH2O and a 100 μl aliquot was added to each well of a multiwell plate (96 well C-shaped microplates). The plates were incubated at 37° C. overnight until the liquid was entirely evaporated and stored until use at 4° C. in plastic bags containing a desiccating material. Such coated plates retained their activity for at least few days. The plates were washed 4 times by immersing in TBST. 200 μl of blocking solution were added to each of the wells. The plates were then incubated for 1 hour at room temperature. 100 μl of the biotinylated peptide (1 μg/ml in TBST) were added to each of the wells with the exception of the control wells. The plates were then incubated for 1 hour at room temperature.
Following incubation, the plates were washed in TBST 4 times as above. A 100 μl aliquot of serum which was diluted in a dilution buffer was added to each well and the plates were incubated for 1 hour at room temperature.
Following this incubation the wells were washed in TBST 4 times as above. A 100 μl aliquot of a secondary antibody (Goat anti-human IgG Horse radish peroxidase conjugate) which was diluted 1:2000 in dilution buffer was added to each well and the plates were incubated for 1 hour at room temperature.
The wells were then washed in TBST 4 times as above followed by two washes in TBS (TBST w/o Tween-20).
A 100 μl aliquot of the substrate solution was added to each well and the plates were incubated at room temperature.
OD was measured at 450 nm and 620 nm every minute over a period of 10-15 minutes.
Employing the above optimized parameters, eight AD and eight NC sera were analyzed using peptide 3M (SEQ ID NO:31). The experiment was repeated over a period of four days, employing four different plates each day. Two plates were preblocked with Gelatin, while two were not. In one experiment chloroform treated serum was analyzed on two additional plates. Three AD sera consistently gave rise to high signals in all experiments. One AD serum caused high signals in 10 out of the 13 plates and four AD sera were consistently negative. One NC sera caused high signals in some of the plates in the experiments conducted on all four days. Two additional NC sera gave rise to high signals in some of the plates in the experiments conducted on three of the four days. […] The reproducibility of the experiments was assessed by averaging the rank-order numbers of each sample in every experiment (Table 3). […]
A series of experiments were performed in which 48 AD and 48 NC were analyzed by the use of 17 different peptides (INO; 2L; 2LR; 3NO; 3L; 3M; 3R; 3LM; 3LR; 4LM; 4MR; 4LMR; 5LM; 6LR; 7MR; 8LMR and 8LMR-V). […]

Sequence: A K S P A E A K S(PO3H) P V K E E A K S P-OH (AKSPAEAK[pS]PVKEEAKSP-OH; N-terminus assumed; SMILES CC(C)[C@H](NC(=O)[C@@H]1CCCN1C(=O)[C@H](COP(=O)(O)O)NC(=O)[C@H](CCCCN)NC(=O)[C@H](C)NC(=O)[C@H](CCC(=O)O)NC(=O)[C@H](C)NC(=O)[C@@H]1CCCN1C(=O)[C@H](CO)NC(=O)[C@H](CCCCN)NC(=O)[C@H](C)N)C(=O)N[C@@H](CCCCN)C(=O)N[C@@H](CCC(=O)O)C(=O)N[C@@H](CCC(=O)O)C(=O)N[C@@H](C)C(=O)N[C@@H](CCCCN)C(=O)N[C@@H](CO)C(=O)N1CCC[C@H]1C(=O)O) [3M]
- saturating concentration of the peptide (anti-NF—H antibodies [1]): 0.4 to 0.8 µg/mL
- sensitivity (anti-NF—H antibodies [2]; eight AD and eight NC samples): 50%
- specificity (anti-NF—H antibodies [2]; eight AD and eight NC samples): 87%
- AD cases detected (anti-NF—H antibodies [2]; eight AD and eight NC sera, pre-blocked plates): four out of eight
- false positive signal (anti-NF—H antibodies [2]; eight AD and eight NC sera, pre-blocked plates (sample No. 485)): one
